The record followed here is publication PMC7841309, “Involvement of the Mitochondrial Protein Tyrosine Phosphatase PTPM1 in the Promotion of Conidiation, Development, and Pathogenicity in Colletotrichum graminicola” (Frontiers in Microbiology, 2021).

Structures are written as SMILES.

This assay concerns the target T1, CgPTPM1 (Colletotrichum graminicola, UniProt E3QMN0).
T1 construct: gene GLRG_07262; full-length ORF (1869 bp cDNA, 622 residues) in pET28a, His-tag, E. coli BL21, Ni-NTA, about 74 kDa
Kind of assay: colorimetric phosphatase assay, […] nm. It is filed as biochemical. The settings on record: 0.1 M Tris, 0.25 M NaCl, 5 mM EDTA, 10 mM DTT, pH 8.2, 37 C, 30 min.

T1 sequence (E3QMN0 entry or part of it): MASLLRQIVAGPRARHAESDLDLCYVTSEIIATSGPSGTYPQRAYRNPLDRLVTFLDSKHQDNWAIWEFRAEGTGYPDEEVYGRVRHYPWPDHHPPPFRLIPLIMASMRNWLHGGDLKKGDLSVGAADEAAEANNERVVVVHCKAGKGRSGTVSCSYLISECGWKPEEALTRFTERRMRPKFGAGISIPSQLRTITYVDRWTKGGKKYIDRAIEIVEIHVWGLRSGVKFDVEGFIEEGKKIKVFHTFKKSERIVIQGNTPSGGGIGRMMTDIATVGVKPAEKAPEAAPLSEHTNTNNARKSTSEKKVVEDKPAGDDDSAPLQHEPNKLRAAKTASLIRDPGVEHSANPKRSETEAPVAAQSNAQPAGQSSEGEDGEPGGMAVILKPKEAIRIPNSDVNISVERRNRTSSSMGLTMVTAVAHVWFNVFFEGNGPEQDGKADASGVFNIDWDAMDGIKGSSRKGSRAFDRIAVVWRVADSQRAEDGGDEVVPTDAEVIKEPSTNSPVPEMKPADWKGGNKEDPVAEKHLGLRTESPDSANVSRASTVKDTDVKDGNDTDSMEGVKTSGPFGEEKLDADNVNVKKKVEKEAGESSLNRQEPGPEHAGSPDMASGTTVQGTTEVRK

As for `O=[N+]([O-])c1ccc(OP(=O)(O)O)cc1` [pNPP, p-nitrophenyl phosphate], the “colorimetric phosphatase assay, 405 nm” value is reported as “Using pNPP as a substrate, the protein phosphatase activity was detected using the colorimetric method”.
